Results from patent US20080255236A1, “Methods and Composition Comprising 2-[(3-Chlorophenyl)Amino] Phenylacetic Acid for Alzheimer's Disease” (Glycadia, Inc., priority 2007, published 2008).
Like-named read-outs stand apart in the source and are kept apart here. Blank lines part the entries; values can stand above or below the compound they belong to.

Experiments:
[1] = Bioavailability of 23CPPA in male rats (oral vs intravenous); format: in vivo; details: rat, single dose oral 30 mg/kg vs intravenous 3.0 mg/kg, plasma LC-MS-MS
Procedure: Male rats were given a single dose of 23CPPA by the oral route (30 mg/kg) or by the intravenous route (3.0 mg/kg). Timed samples of blood were collected before and after dosing, and plasma concentrations of the compound were determined with LC-MS-MS analysis.

[2] = Plasma levels of 23CPPA following oral administration in rats; format: in vivo, rat; details: for AUC(0-t) / half-life: plasma, rat; for AUC(0-t) / Cmax / half-life: po; for AUC(0-t): read-out: AUC0-24; for Cmax: read-out: maximal concentration (Cmax)
Procedure: Concentrations of compound in rat plasma were measured at timed intervals after administration by gavage of 25 and 75 mg per kilogram of body weight of the sodium salt of 23CPPA. […] Plasma concentrations of the compound readily declined after reaching maximal concentration and the elimination half-life (T^1/2) was about 2 hours. The extent of systemic exposure of animals to 23CPPA, characterized by the area under the curve from 0 to 24 hours after administration (AUC0-24), increased with increasing dosage, was approximately dose proportional, and encompassed levels representing therapeutic ranges.

[3] = Brain and plasma levels of 23CPPA following oral administration in rats (HPLC/MS/MS); format: in vivo; details: rat; for concentration at 1 h: 1 hour after dose; for concentration at 4 h: 4 hours after dose; for concentration at 6 h: 6 hours after dose
Procedure: Rat hemi brains were obtained 1, 4 and 6 hours after administration by gavage of the sodium salt of 23CPPA at doses of 15 and 60 mg/kg and were mixed with two equivalents of water and homogenized. The resulting homogenate was extracted into acetonitrile containing internal standard and concentrations of the compound were analyzed by high pressure liquid chromatography/two stage mass spectrometry (HPLC/MS/MS). Plasma samples also were collected from the same rats at these time points for measurement of plasma concentrations of the compound.

[4] = Plasma levels of 23CPPA after oral administration to humans; format: in vivo, human; details: for AUC(0-t): read-out: AUC0-24
Procedure: Plasma concentrations were measured at timed intervals after oral administration of a single dose of 50 to 1000 mg of the sodium salt of 23CPPA. […] The extent of systemic exposure of subjects to 23CPPA, characterized by the area under the curve from 0 to 24 hours after administration (AUC0-24), increased with increasing dosage from 50 to 1000 mg and was approximately dose proportional. The human pharmacokinetic findings closely resemble those in rats according to the human equivalent dose as shown in Example 2.

[5] = tested on: Mammalian cell cultures expressing human Amyloid Protein Precursor (APP); test: Production of Aβ40 and Aβ42 peptides in culture supernatants, enzyme-linked immunoassay; format: cell-based; details: sodium salt at 10, 50 and 100 micromolar, vs DMSO control
Procedure: FIG. 1 is a chart diagram representing an exemplary embodiment of 23CPPA lowering production of amyloidogenic Aβ42 peptide. Mammalian cell cultures expressing human Amyloid Protein Precursor (APP) were treated with the sodium salt of 23CPPA at concentrations of 10, 50 and 100 micromolar. The culture supernatants were analyzed by enzyme-linked immunoassay for the Aβ40 and Aβ42 peptides. Results were compared to control values obtained from cells treated with DMSO. […] Mammalian cell cultures expressing human Amyloid Protein Precursor (APP) were treated with the sodium salt of 23CPPA at concentrations of 10, 50 and 100 micromolar. The culture supernatants were analyzed by enzyme-linked immunoassay for the Aβ40 and Aβ42 peptides. Results were compared to control values obtained from cells treated with DMSO.

[6] = tested on: human hepatocytes; test: Metabolic conversion after incubation with human hepatocytes (mass spectrometry); format: in vitro ADME
Procedure: After incubation of 23CPPA with human hepatocytes, samples were analyzed using mass spectrometry to establish metabolic conversion of the compound.

[7] = target: COX1 (Homo sapiens, UniProt P23219); details: background statement, no test described; cited from earlier work
Chain of COX1 (P23219 24-599): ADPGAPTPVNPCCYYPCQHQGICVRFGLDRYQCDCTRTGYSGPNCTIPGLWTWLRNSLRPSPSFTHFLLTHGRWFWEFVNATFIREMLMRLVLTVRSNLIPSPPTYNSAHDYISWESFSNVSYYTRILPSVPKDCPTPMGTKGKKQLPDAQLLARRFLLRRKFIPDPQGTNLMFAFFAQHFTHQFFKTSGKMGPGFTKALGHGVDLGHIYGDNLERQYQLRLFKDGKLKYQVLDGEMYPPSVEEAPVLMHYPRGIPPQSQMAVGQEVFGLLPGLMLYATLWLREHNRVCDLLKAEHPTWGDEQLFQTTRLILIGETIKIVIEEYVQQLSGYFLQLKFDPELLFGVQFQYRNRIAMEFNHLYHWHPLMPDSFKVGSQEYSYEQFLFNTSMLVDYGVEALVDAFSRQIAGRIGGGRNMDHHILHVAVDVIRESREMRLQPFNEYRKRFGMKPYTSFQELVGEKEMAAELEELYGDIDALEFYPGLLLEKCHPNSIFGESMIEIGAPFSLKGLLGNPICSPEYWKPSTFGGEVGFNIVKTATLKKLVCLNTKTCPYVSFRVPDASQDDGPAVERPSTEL

[8] = target: T1, COX2 (Homo sapiens, UniProt P35354); details: background statement, no test described; cited from earlier work
T1 sequence (P35354 18-604): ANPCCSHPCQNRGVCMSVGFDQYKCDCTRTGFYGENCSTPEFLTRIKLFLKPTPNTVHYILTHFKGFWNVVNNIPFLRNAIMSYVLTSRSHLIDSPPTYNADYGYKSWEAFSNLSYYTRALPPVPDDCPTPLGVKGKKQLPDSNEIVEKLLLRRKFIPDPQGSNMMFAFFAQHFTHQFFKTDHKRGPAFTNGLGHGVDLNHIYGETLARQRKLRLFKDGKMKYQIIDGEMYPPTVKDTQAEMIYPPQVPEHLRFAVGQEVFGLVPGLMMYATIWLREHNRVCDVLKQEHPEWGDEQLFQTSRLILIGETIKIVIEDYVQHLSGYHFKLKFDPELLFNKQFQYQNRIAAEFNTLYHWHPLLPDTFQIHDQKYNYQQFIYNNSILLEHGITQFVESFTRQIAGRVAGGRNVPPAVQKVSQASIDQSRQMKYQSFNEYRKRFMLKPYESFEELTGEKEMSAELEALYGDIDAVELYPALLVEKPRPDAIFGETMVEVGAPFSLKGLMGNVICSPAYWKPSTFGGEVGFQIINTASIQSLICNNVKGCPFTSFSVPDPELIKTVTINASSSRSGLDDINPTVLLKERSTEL

[9] = tested on: diabetic rodents; details: chronic administration, cited from earlier work
[10] = cited from earlier work
[11] = blood, gavage 15 mg/kg sodium salt, read-out: Blood concentration
[12] = blood, gavage 60 mg/kg sodium salt, read-out: Blood concentration
[13] = brain, gavage 15 mg/kg sodium salt, read-out: Brain concentration
[14] = brain, gavage 60 mg/kg sodium salt, read-out: Brain concentration

- bioavailability [1]: 85%
- AUC(0-t) ([2]; gavage 25 mg/kg body wt. sodium salt): 26600 ng·h/mL
- AUC(0-t) ([2]; gavage 75 mg/kg body wt. sodium salt): 94000 ng·h/mL
- Cmax ([2]; rat plasma, gavage 25 mg/kg sodium salt): 9500 ng/mL
- Cmax ([2]; rat plasma, gavage 75 mg/kg sodium salt): 25000 ng/mL
- Time of maximal concentration (Tmax) ([2]; rat plasma, gavage 25 and 75 mg/kg sodium salt): within one hour
- half-life ([2]; 25 mg/kg, gavage 25 mg/kg body wt. sodium salt, read-out: T1/2 (converted)): 147 min
- half-life ([2]; 75 mg/kg, rat plasma, gavage 25 and 75 mg/kg sodium salt, read-out: elimination half-life (T1/2) (converted)): ~120 min
- half-life ([2]; 75 mg/kg, gavage 75 mg/kg body wt. sodium salt, read-out: T1/2 (converted)): 117 min
- concentration at 1 h [3, 11]: 27 µM
- concentration at 4 h [3, 11]: 4 µM
- concentration at 6 h [3, 11]: 3 µM
- concentration at 1 h [3, 12]: 57 µM
- concentration at 4 h [3, 12]: 28 µM
- concentration at 6 h [3, 12]: 22 µM
- concentration at 1 h [3, 13]: 76 µM
- concentration at 4 h [3, 13]: 12.4 µM
- concentration at 6 h [3, 13]: 11.9 µM
- concentration at 1 h [3, 14]: 148 µM
- concentration at 4 h [3, 14]: 61 µM
- concentration at 6 h [3, 14]: 45 µM
- Cmax ([4]; human plasma, single oral dose of 50 to 1000 mg sodium salt, read-out: maximal concentrations (Cmax)): 200 to 15600 ng/mL
- Tmax ([4]; plasma, human, all dosage groups, single oral dose 50 to 1000 mg sodium salt, read-out: mean time of maximal concentration (Tmax)): 1.74 h
- AUC(0-t) ([4]; plasma, human, single oral dose 50 mg (0.7 mg/kg body wt)): 4480 ng·h/mL
- half-life ([4]; plasma, human, single oral dose 50 mg (0.7 mg/kg body wt), read-out: T1/2 (converted)): 93 min
- AUC(0-t) ([4]; plasma, human, single oral dose 100 mg (1.3 mg/kg body wt)): 11000 ng·h/mL
- half-life ([4]; plasma, human, single oral dose 100 mg (1.3 mg/kg body wt), read-out: T1/2 (converted)): 90 min
- AUC(0-t) ([4]; plasma, human, single oral dose 250 mg (3.0 mg/kg body wt)): 27300 ng·h/mL
- half-life ([4]; plasma, human, single oral dose 250 mg (3.0 mg/kg body wt), read-out: T1/2 (converted)): 81 min
- AUC(0-t) ([4]; plasma, human, single oral dose 500 mg (6.0 mg/kg body wt)): 54000 ng·h/mL
- half-life ([4]; plasma, human, single oral dose 500 mg (6.0 mg/kg body wt), read-out: T1/2 (converted)): 90 min
- AUC(0-t) ([4]; plasma, human, single oral dose 750 mg (9.0 mg/kg body wt)): 66600 ng·h/mL
- half-life ([4]; plasma, human, single oral dose 750 mg (9.0 mg/kg body wt), read-out: T1/2 (converted)): 140 min
- AUC(0-t) ([4]; plasma, human, single oral dose 1000 mg (12.3 mg/kg body wt)): 100000 ng·h/mL
- half-life ([4]; plasma, human, single oral dose 1000 mg (12.3 mg/kg body wt), read-out: T1/2 (converted)): 143 min
- half-life ([4]; plasma, human, single oral dose 50 to 1000 mg sodium salt, read-out: mean elimination half-life (T1/2) (converted)): 106 min
Compound: O=C(O)Cc1ccccc1Nc1cccc(Cl)c1 [23CPPA, 2-[(3-chlorophenyl)amino]phenylacetic acid]
- amount of Aβ40 [5]: without proportionate change
- amount of Aβ42 [5]: dose-dependent reduction
- total Aβ values [5]: without proportionate change
- conversion products identified ([6]; incubation with human hepatocytes, mass spectrometry): hydroxylation and loss of water products and glucuronide conjugates
- conversion to COX-inhibitory compound ([6]; structures of conversion products from human hepatocytes): none of which had structures compatible with COX-inhibitory activity
- inhibition of cyclooxygenase enzyme COX1 [7]: is not a pharmacologic inhibitor
- inhibition of cyclooxygenase enzyme COX2 [8]: is not a pharmacologic inhibitor
- concentration of glycated albumin ([9]; persistent hyperglycemia): lowers the concentration of glycated albumin
- structural and functional abnormalities characteristic of diabetic kidney disease [9]: ameliorates the structural and functional abnormalities

Compound: C[C@@H](C(=O)O)c1ccc(-c2ccccc2)c(F)c1 [R-flurbiprofen]
- fraction converted in vivo to S-flurbiprofen [10]: 22-30%
